Measured values as given in ChEMBL document CHEMBL1150319, “Activity-based probe for specific photoaffinity labeling gamma-aminobutyric acid B (GABAB) receptors on living cells: design, synthesis, and biological evaluation” (J Med Chem, 2008).
Blank lines part the entries; values can stand above or below the compound they belong to. The source made the active and inactive calls. No cut-off for these calls is given here.

Tests used:
[1] = tested on: CHO; test: Binding affinity at intracellular GABA B receptor expressed in CHO cells at 1uM before 15 mins of UV irradiation by […] microscopy based photoaffinity labeling; type: cell-based
[2] = tested on: CHO; test: Binding affinity at intracellular DsRed2-tagged GABA B receptor expressed in CHO cells at 1 uM by fluorescence confocal microscopy based photoaffinity labeling; type: cell-based
[3] = tested on: CHO; test: Increase in labeling efficiency in CHO cells expressing GABA B1-ASA receptor mutant after UV irradiation; type: cell-based
[4] = tested on: CHO; test: Binding affinity at cell surface GABA B receptor expressed in CHO cells at 1 uM before 15 mins of UV irradiation by […] microscopy based photoaffinity labeling
[5] = Antagonist activity at GABA B receptor expressed in HEK293 cells assessed as inhibition of GABA-induced IP production after 15 mins; type: functional, cell-based; conditions: HEK293, 0.25 h
[6] = tested on: CHO; test: Displacement of CGP-64213 from GABA B1-ASA receptor mutant expressed in CHO cells at 1 uM; type: cell-based
[7] = tested on: HEK293; test: Antagonist activity at GABA B receptor expressed in HEK293 cells assessed as inhibition of GABA-induced IP production at 10 uM after 15 mins; type: functional, cell-based

IC50 [5]: 1.03 µM
SMILES: CC1=CC(C)=[N+]2C1=C(CCCC(=O)NCc1cn(CC(=O)NCCOCCOCCOc3cc(C4(C(F)(F)F)N=N4)ccc3C(=O)NCCCCCP(=O)(O)C[C@@H](O)CN[C@H](C)c3cccc(C(=O)O)c3)nn1)c1c(C)cc(C)n1[B-]2(F)F
Activity [1]: inactive
Activity [2]: inactive
Activity [3]: Active
Activity [4]: Active
Activity [6]: Active

SMILES: CC1=CC(C)=[N+]2C1=C(CCCC(=O)NCCOCCOCCOc1cc(C3(C(F)(F)F)N=N3)ccc1CO)c1c(C)cc(C)n1[B-]2(F)F
Activity [7]: inactive
Activity [6]: inactive
